According to patent US20110152225A1, “PPAR-Gamma Agonists for the Induction of Cationic Antimicrobial Peptide Expression as Immunoprotective Stimulants” (priority 2007, published 2011):

What was measured:
[1] = test system: HD-5; assay: HD-5 defensin gene expression in intestinal epithelial cells (Caco-2), quantitative PCR; format: cell-based, human; settings: for activation of HD-5, as determined by quantitative PCR analysis: Caco-2 cells
Protocol: (§1) Cultured intestinal epithelial cell lines, namely Caco-2 (of human origin) and ICcl2 (of mice origin), were treated with the GSK-3 inhibitor LiCl ([…]) or the phosphatase inhibitor calyculin (50 nM) followed or not by stimulation with the PPAR-gamma agonist such as rosiglitazone (1 microM).
(§2) The expression of defensin and known target genes of both Wnt and PPAR-gamma signaling pathways were investigated by quantitative real-time PCR. The activation of GSK3, beta-catenin, NF-kappaB, ERK1/2, SAPK/JNK and p38 was measured by specific immunoblotting.

[2] = test system: hBD1; assay: hBD1 defensin mRNA expression in colonic epithelial Caco-2 cells; format: cell-based, human; settings: stimulated for 24 h
Source text: 5-ASA was purchased at Sigma-Aldrich (St Quentin Fallavier, France). Rosiglitazone was synthesized in the laboratory according to standard procedures. The racemic compound 34 and the two enantiomers of the compound, 34-E1 and 34-E2 were provided by Giuliani SpA (Milano, Italy). Compound were re-suspended in DMEM medium (Gibco) and adjusted at pH=7 if necessary with 10N NaOH.
The colon carcinoma cell line Caco-2 (ATCC HTB-39) was routinely grown in DMEM supplemented respectively with 10% or 20% heat-FCS, and antibiotics. Cells were grown in monolayers, incubated at 37° C. in 5% CO2 and 95% relative humidity.
Cell were stimulated by 5-ASA, R34, 34-E1 and 34-E2 for 24 h. Total RNA was isolated from cells using Rneasy kit (Macherey Nagel, Hoerdt, France) according to the manufacturer's instructions. RNA quantification was performed using spectrophotometry. After treatment at 37° C. for 30 min with 20-50 units of RNase-free DNase I (Roche Diagnostics Corporation, Indianapolis, Ind., USA), oligo-dT primers (Roche Diagnostics Corporation, Indianapolis, USA) were used to synthesize single-stranded cDNA. mRNAs were quantified using SYBR green Master Mix (Applera, Courtaboeuf, France) with human specific oligonucleotides for hBD1(S:5′-[…]-3′; AS:5′-TTgTCTGAGATGGCCTCAggTggTAAC-3′) in a GeneAmp Abiprism 7000 (Applera, Courtaboeuf, France). In each assay, calibrated and no-template controls were included. Each sample was run in triplicate. SYBR green dye intensity was analyzed using the Abiprism 7000 SDS software (Applera, Courtaboeuf, France). All results were normalized to the unaffected housekeeping gene of human β-actin (S:5′-TCACCCACACTgTgCCCATCTACg-3′; AS:5′-CAgCggAACCgCTCATTgCCAATg-3′).

[3] = test system: LL37; assay: LL37 (defensin) mRNA expression in colon of healthy mice; format: in vivo; settings: for induction of defensin expression / potency in defensin expression induction compared to 5-ASA: conclusion on the in vitro and in vivo results; for colon defensin (LL37) mRNA expression: healthy mice (n=5), enema during 10 days, 5-ASA 30 mM, R34, E1 and E2 1 mM
Protocol: […] Post-mortem, total RNA was isolated from whole mice colonic tissues using Rneasy kit (Macherey Nagel, Hoerdt, France) according to the manufacturer's instructions. RNA quantification was performed using spectrophotometry. After treatment at 37° C. for 30 min with 20-50 units of RNase-free DNase I (Roche Diagnostics Corporation, Indianapolis, Ind., USA), oligo-dT primers (Roche Diagnostics Corporation, Indianapolis, USA) were used to synthesize single-stranded cDNA. mRNAs were quantified using SYBR green Master Mix (Applera, Courtaboeuf, France) with mouse specific oligonucleotides for LL37(S:5′-gCTgATTCTTTTgACATCAgCTgTAA-3′ AS:5′-gCCAgCCgggAAATTTTCT-3′) in a GeneAmp Abiprism 7000 (Applera, Courtaboeuf, France). In each assay, calibrated and no-template controls were included. Each sample was run in triplicate. SYBR green dye intensity was analyzed using the Abiprism 7000 SDS software (Applera, Courtaboeuf, France). All results were normalized to the unaffected housekeeping gene β-actin (S:5′-gggTCAgAAggATTCCTATg-3′; AS:5′ ggTCTCAAACATgATCTggg-3′).

[4] = test system: PPAR-gamma; assay: PPAR-gamma mRNA expression in colon of healthy mice; format: in vivo; settings: healthy mice (n=5); enema during 10 days; 5-ASA 30 mM, R34, E1 and E2 1 mM
[5] = test system: Clostridium bacterial cultures; settings: agar plates in aerobic and anaerobic conditions; U.S. Pat. No. 6,326,364; cited from earlier work
[6] = test system: colonies of Lactobacillus, Enterococcus or Bacteroides; settings: U.S. Pat. No. 6,326,364; cited from earlier work
[7] = test system: cyclin-D1; assay: Expression of Wnt/Tcf/beta-catenin target gene cyclin-D1, quantitative real-time PCR; format: cell-based; settings: stimulation by both calyculin and rosiglitazone
Protocol: as §1, §2

[8] = test system: beta-catenin; assay: Stability of beta-catenin, immunoblotting; format: cell-based; settings: stimulation by both calyculin and rosiglitazone
Protocol: as §1, §2

Nc1ccc(O)c(C(=O)O)c1 [Compound 5-ASA, 5-aminosalycilate, reference compound]
activation of HD-5, as determined by quantitative PCR analysis [1]: activates HD-5
expression of hBD1 (human defensin-1) [2]: induce the expression of hBD1
induction of defensin expression [3]: induction of defensin expression
colon defensin (LL37) mRNA expression [3]: induced
colon PPARy mRNA expression [4]: induced
antimicrobial effect against Clostridium bacterial cultures [5]: inhibitory effects
antimicrobial effect against colonies of Lactobacillus, Enterococcus or Bacteroides [6]: No effect

calyculin
antimicrobial (defensin) gene expression induced by PPAR-gamma activators following co-stimulation ([1]; co-stimulation by calyculin with rosiglitazone and other PPAR-gamma activators): synergized
expression of Wnt/Tcf/beta-catenin target gene cyclin-D1 [7]: markedly decreased
stability of the beta-catenin [8]: markedly decreased

CCOC(Cc1ccc(N)cc1)C(=O)O (racemic) [Compound 39, (±)-2-ethoxy-3-(4′-aminophenyl)propionic acid]
activation of HD-5, as determined by quantitative PCR analysis [1]: activates HD-5

COC(Cc1ccc(N)cc1)C(=O)O (racemic) [Compound R34, (±)-2-methoxy-3-(4′-aminophenyl)propionic acid]
expression of hBD1 (human defensin-1) [2]: induce the expression of hBD1
induction of defensin expression [3]: induction of defensin expression
colon defensin (LL37) mRNA expression [3]: induced
colon PPARy mRNA expression [4]: induced

CCOC(Cc1cccc(N)c1)C(=O)O (racemic) [Compound 40, (±)-2-ethoxy-3-(3′-aminophenyl)propionic acid]
activation of HD-5, as determined by quantitative PCR analysis [1]: activates HD-5

CO[C@H](Cc1cccc(N)c1)C(=O)O [Compound 34-E2, (−) 2-R-methoxy-3-(3-aminophenyl)propionic acid]
expression of hBD1 (human defensin-1) [2]: induce the expression of hBD1
induction of defensin expression [3]: induction of defensin expression
potency in defensin expression induction compared to 5-ASA [3]: higher potency
colon defensin (LL37) mRNA expression [3]: induced
gut defensin expression induction ([3]; summary statement referring to FIGS. 8 & 9): particularly effective
colon PPARy mRNA expression [4]: induced

[Cl-].[Li+] [LiCl, reference compound]
rosiglitazone-induced defensin gene expression ([1]; co-stimulation with LiCl): blocked

CO[C@@H](Cc1cccc(N)c1)C(=O)O [Compound 34-E1, (+) 2-S-methoxy-3-(3-aminophenyl)propionic acid]
induction of defensin expression [3]: induction of defensin expression
potency in defensin expression induction compared to 5-ASA [3]: higher potency
colon defensin (LL37) mRNA expression [3]: induced
colon PPARy mRNA expression [4]: induced

COc1ccc(N)cc1C(=O)NO [Compound 14, 5-amino-N-hydroxy-2-methoxybenzamide]
activation of HD-5, as determined by quantitative PCR analysis [1]: activates HD-5
